Measurements from PubChem BioAssay AID256 (DTP/NCI, 2004).
Several values for one entry are separate records, joined by “and”; a condition that tells them apart may be missing. Equal entries are not always repeated. Inconclusive results and toxic doses are left out.

Test system: CD2F1 mice, L1210 leukemia ip, survival T/C
Test: NCI In Vivo Anticancer Drug Screen. Data for tumor model L1210 Leukemia (intraperitoneal) in CD2F1 (CDF1) mice
Conditions: higher = longer survival
Outline: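 Compound-dosed mice with transplantable tumor versus matched vehicle controls; endpoint ratio T/C reported.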

[1] = endpoint: mean survival time, dose: 100.0 mg/kg/injection, schedule: Q04DX003 (ip), vehicle: saline with Tween-80
[2] = endpoint: mean survival time, dose: 200.0 mg/kg/injection, schedule: Q04DX003 (ip), vehicle: saline with Tween-80
[3] = endpoint: mean survival time, dose: 400.0 mg/kg/injection, schedule: Q04DX003 (ip), vehicle: saline

Structure (SMILES): CCCNCC(=O)O[C@]1(CC)C(=O)OCc2c1cc1n(c2=O)Cc2cc3ccccc3nc2-1
- T/C (endpoint: median survival time, dose: 7.5 mg/kg/injection, schedule: Q04DX002 (ip), vehicle: saline): 112 % of control
- T/C (endpoint: median survival time, dose: 30.0 mg/kg/injection, schedule: Q04DX002 (ip), vehicle: saline): 159 % of control and 204 % of control
- T/C (endpoint: median survival time, dose: 60.0 mg/kg/injection, schedule: Q04DX002 (ip), vehicle: saline): 116 % of control and 106 % of control

Structure (SMILES): CC(C)(C)OC(=O)NCCCC(=O)O
- T/C [1]: 93 % of control
- T/C [2]: 90 % of control

Structure (SMILES): O=[N+]([O-])c1ccc(Cl)c(CNc2ncnc3c2ncn3C2CCCCO2)c1 (centres undefined)
- T/C (endpoint: mean survival time, dose: 100.0 mg/kg/injection, schedule: Q01DX009 (ip), vehicle: acetone): 95 % of control
- T/C (endpoint: mean survival time, dose: 200.0 mg/kg/injection, schedule: Q01DX009 (ip), vehicle: acetone): 97 % of control
- T/C (endpoint: mean survival time, dose: 400.0 mg/kg/injection, schedule: Q01DX009 (ip), vehicle: acetone): 93 % of control

Structure (SMILES): Cc1cccc(Cl)c1NC1=NCCO1
- T/C (endpoint: mean survival time, dose: 6.25 mg/kg/injection, schedule: Q04DX003 (ip), vehicle: saline with Tween-80): 100 % of control
- T/C (endpoint: mean survival time, dose: 12.5 mg/kg/injection, schedule: Q04DX003 (ip), vehicle: saline with Tween-80): 100 % of control
- T/C (endpoint: mean survival time, dose: 25.0 mg/kg/injection, schedule: Q04DX003 (ip), vehicle: saline with Tween-80): 111 % of control

Structure (SMILES): CC1(C)OC2C(COC(=O)Oc3ccccc3)OC(n3cnc4c(=O)[nH]c(N)nc43)C2O1 (centres undefined)
- T/C (endpoint: mean survival time, dose: 100.0 mg/kg/injection, schedule: Q01DX001 (ip), vehicle: Klucel (hydroxypropylcellulose) (HPC)): 92 % of control
- T/C (endpoint: mean survival time, dose: 200.0 mg/kg/injection, schedule: Q01DX001 (ip), vehicle: Klucel (hydroxypropylcellulose) (HPC)): 93 % of control
- T/C (endpoint: mean survival time, dose: 400.0 mg/kg/injection, schedule: Q01DX001 (ip), vehicle: Klucel (hydroxypropylcellulose) (HPC)): 92 % of control

Structure (SMILES): COC1=CC2=C3[C@H](Cc4cc5c(c(c4)Oc4ccc(cc4)C[C@H]4c6cc7c(cc6CCN4C)OCC3(O7)C1=O)OCO5)N(C)CC2 (some centres undefined)
- T/C (endpoint: mean survival time, dose: 50.0 mg/kg/injection, schedule: Q04DX003 (ip), vehicle: saline with Tween-80): 96 % of control
- T/C [1]: 98 % of control
- T/C [2]: 96 % of control

Structure (SMILES): CSc1nc(NC2OC(CO)C(O)C(O)C2O)c(I)c(=O)[nH]1 (centres undefined)
- T/C (endpoint: median survival time, dose: 12.5 mg/kg/injection, schedule: Q01DX005 (ip), vehicle: saline with Tween-80): 100 % of control
- T/C (endpoint: median survival time, dose: 25.0 mg/kg/injection, schedule: Q01DX005 (ip), vehicle: saline with Tween-80): 98 % of control
- T/C (endpoint: median survival time, dose: 50.0 mg/kg/injection, schedule: Q01DX005 (ip), vehicle: saline with Tween-80): 100 % of control
- T/C (endpoint: median survival time, dose: 100.0 mg/kg/injection, schedule: Q01DX005 (ip), vehicle: saline with Tween-80): 100 % of control
- T/C (endpoint: median survival time, dose: 200.0 mg/kg/injection, schedule: Q01DX005 (ip), vehicle: saline with Tween-80): 102 % of control

Structure (SMILES): CC1(C)OC1C(=O)O (centres undefined)
- T/C (endpoint: mean survival time, dose: 100.0 mg/kg/injection, schedule: Q04DX003 (ip), vehicle: saline): 106 % of control
- T/C (endpoint: mean survival time, dose: 200.0 mg/kg/injection, schedule: Q04DX003 (ip), vehicle: saline): 96 % of control
- T/C [3]: 98 % of control

Structure (SMILES): CN(C)c1n[nH]c(N)n1
- T/C (endpoint: mean survival time, dose: 76.0 mg/kg/injection, schedule: Q04DX003 (ip), vehicle: saline): 97 % of control
- T/C (endpoint: mean survival time, dose: 115.0 mg/kg/injection, schedule: Q04DX003 (ip), vehicle: saline): 101 % of control
- T/C (endpoint: mean survival time, dose: 174.0 mg/kg/injection, schedule: Q04DX003 (ip), vehicle: saline): 104 % of control
- T/C (endpoint: mean survival time, dose: 264.0 mg/kg/injection, schedule: Q04DX003 (ip), vehicle: saline): 103 % of control
- T/C [3]: 105 % of control

Structure (SMILES): [CH3][Sn]([CH3])([Br])[CH2]CC[CH2][Sn]([CH3])([CH3])[Br]
- T/C (endpoint: mean survival time, dose: 0.02 mg/kg/injection, schedule: Q01DX009 (ip), vehicle: saline): 100 % of control
- T/C (endpoint: mean survival time, dose: 0.04 mg/kg/injection, schedule: Q01DX009 (ip), vehicle: saline): 104 % of control
- T/C (endpoint: mean survival time, dose: 0.08 mg/kg/injection, schedule: Q01DX009 (ip), vehicle: saline): 102 % of control
- T/C (endpoint: mean survival time, dose: 6.25 mg/kg/injection, schedule: Q01DX009 (ip), vehicle: saline): 110 % of control

Structure (SMILES): Cc1ccc2c(c1)C(=NCCCN=C1C(=O)Nc3ccc(C)cc31)C(=O)N2
- T/C (endpoint: mean survival time, dose: 100.0 mg/kg/injection, schedule: Q01DX001 (ip), vehicle: saline with Tween-80): 103 % of control
- T/C (endpoint: mean survival time, dose: 200.0 mg/kg/injection, schedule: Q01DX001 (ip), vehicle: saline with Tween-80): 95 % of control
- T/C (endpoint: mean survival time, dose: 400.0 mg/kg/injection, schedule: Q01DX001 (ip), vehicle: saline with Tween-80): 98 % of control

Structure (SMILES): O=C(c1ccccc1)c1cc2ccccc2o1
- T/C (endpoint: mean survival time, dose: 50.0 mg/kg/injection, schedule: Q01DX009 (ip), vehicle: saline + alcohol): 102 % of control
- T/C (endpoint: mean survival time, dose: 100.0 mg/kg/injection, schedule: Q01DX009 (ip), vehicle: saline + alcohol): 105 % of control
- T/C (endpoint: mean survival time, dose: 200.0 mg/kg/injection, schedule: Q01DX009 (ip), vehicle: saline + alcohol): 93 % of control

Structure (SMILES): O=C1CCc2ccccc2C1C(=O)CC(O)(c1ccccc1)c1ccccc1 (centres undefined)
- T/C [1]: 100 % of control
- T/C [2]: 102 % of control

Structure (SMILES): CC(=O)NNC(=O)CC(O)(c1ccccc1)c1ccccc1
- T/C (endpoint: mean survival time, dose: 100.0 mg/kg/injection, schedule: Q04DX002 (ip), vehicle: saline with Tween-80): 113 % of control
- T/C (endpoint: mean survival time, dose: 200.0 mg/kg/injection, schedule: Q04DX002 (ip), vehicle: saline with Tween-80): 95 % of control
